Columns and labels:
[1] = molecular target: T1, IDO (SKOV3) (Homo sapiens, UniProt P14902); assay: SKOV3 Kynurenine cell based assay; conditions: SKOV3 human ovarian adenocarcinoma cells, IDO induced by IFN-γ; kynurenine production, 48 hours
T1 construct: IDO expression was induced in the SKOV3 cells by the addition of 500 ng/ml IFN-γ; endogenous in cells; host or cells: SKOV3 (human ovarian adenocarcinoma), IFN-γ induced
Procedure: (§1) Exemplary compounds of the invention were prepared, and tested to determine their effect as TDO and/or IDO inhibitors. Two different assays were employed: 1. a cell-based assay for detecting the effect of test compounds on kynurenine production in two different cancer cell types. This assay utilised cancer cells which expressed either TDO (A172) or IDO (SKOV3) and as such was used as a means of testing compound activity at these two enzymes in a cell-based context. 2. a TDO and IDO biochemical coupled assay which utilised recombinantly produced and purified TDO and IDO enzymes in combination with the enzyme formamidase. This coupled enzyme system allowed conversion of N-formylkynurenine produced by TDO or IDO activity to kynurenine which was then quantified by fluorescence following addition of Erhlich's Reagent The protocols for these are set out below.
(§2) Cell Based Assay for Detection of Kynurenine Produced by TDO and/or IDO
(§3) A172 (human glioblastoma) and SKOV3 (human ovarian adenocarcinoma) cells were seeded in a 96 well plate at 30,000 or 40,000 cells per well respectively in phenol red-free RPMI supplemented with 10% FCS, 2 mM L-glutamine and 500 µM L-tryptophan. IDO expression was induced in the SKOV3 cells by the addition of 500 ng/ml IFN-γ. Cells were incubated at 37° C. with or without the addition of test compound. After 48 hours, the cells were removed by centrifugation and Erhlich's reagent was added to the supernatant.

[2] = molecular target: Recombinant human TDO (Homo sapiens, UniProt P48775); assay: hTDO biochemical assay (coupled with formamidase); conditions: 330 μM L-tryptophan, coupled with kynurenine formamidase, fluorescence
Recombinant human TDO, sequence (P48775 whole entry): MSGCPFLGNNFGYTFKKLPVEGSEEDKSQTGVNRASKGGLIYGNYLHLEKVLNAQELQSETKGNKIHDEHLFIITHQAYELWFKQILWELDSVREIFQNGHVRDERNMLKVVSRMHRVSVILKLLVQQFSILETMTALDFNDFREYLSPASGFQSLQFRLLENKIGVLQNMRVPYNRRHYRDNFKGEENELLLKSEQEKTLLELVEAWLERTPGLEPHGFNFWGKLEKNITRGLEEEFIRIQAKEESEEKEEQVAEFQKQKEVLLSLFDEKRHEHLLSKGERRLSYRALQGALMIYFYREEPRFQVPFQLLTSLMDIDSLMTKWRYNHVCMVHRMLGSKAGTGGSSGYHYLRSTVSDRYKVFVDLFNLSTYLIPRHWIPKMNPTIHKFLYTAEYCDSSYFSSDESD
Procedure: as §1
(§4) TDO and IDO Biochemical Coupled Assay
(§5) Recombinant human IDO or TDO was incubated in 50 mM KPO4 (pH 7.0), 0.5 mM EGTA, 0.5 mM EDTA, 0.05% Triton™ X100, 20 mM ascorbate, […] methylene blue, 500 U/ml catalase, 50 μg/ml KynB (kynurenine formamidase). TDO assays were carried out in the presence of 330 μM L-tryptophan, while IDO assays had the addition of 45 µM L-tryptophan. After incubation for 17 minutes at room temperature the reactions were stopped by the addition of Erhlich's reagent and incubated at room temperature for 5 minutes before the fluorescence was read (Ex475, Em530).

[3] = molecular target: Recombinant human IDO (Homo sapiens, UniProt P14902); assay: hIDO biochemical assay (coupled with formamidase); conditions: coupled with kynurenine formamidase, fluorescence
Recombinant human IDO, sequence (P14902 whole entry): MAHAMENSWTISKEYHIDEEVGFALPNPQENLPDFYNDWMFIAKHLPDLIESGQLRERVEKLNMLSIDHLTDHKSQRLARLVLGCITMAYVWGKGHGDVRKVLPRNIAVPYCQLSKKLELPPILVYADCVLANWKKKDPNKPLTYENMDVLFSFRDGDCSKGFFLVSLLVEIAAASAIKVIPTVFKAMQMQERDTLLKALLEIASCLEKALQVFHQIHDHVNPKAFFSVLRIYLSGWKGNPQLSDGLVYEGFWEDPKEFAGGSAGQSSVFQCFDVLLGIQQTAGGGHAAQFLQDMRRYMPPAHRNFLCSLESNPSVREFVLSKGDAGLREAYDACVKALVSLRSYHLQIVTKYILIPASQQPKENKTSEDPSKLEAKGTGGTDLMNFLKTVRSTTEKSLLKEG
Procedure: as §1, §4, §5

[4] = molecular target: T2, TDO (A172) (Homo sapiens, UniProt P48775); assay: A172 Kynurenine cell based assay; conditions: A172 human glioblastoma cells expressing TDO; kynurenine production, 48 hours
T2 construct: This assay utilised cancer cells which expressed either TDO (A172) or IDO (SKOV3); endogenous in cells; host or cells: A172 (human glioblastoma)
T2 sequence (P48775 whole entry): as the sequence (P48775 whole entry) above
Procedure: as §1, §2
as §3, with “supernatant. The Erhlich's reagent was incubated for 5 minutes before the absorbance was read at 490 nm.” for “supernatant.”

T1 sequence (P14902 whole entry): as the sequence (P14902 whole entry) above

| SMILES | SKOV3 Kynurenine cell based assay pIC50 [1] | hTDO biochemical assay pIC50 [2] | hIDO biochemical assay pIC50 [3] | A172 Kynurenine cell based assay pIC50 [4] |
| --- | --- | --- | --- | --- |
| Nc1oncc1-c1cccc(F)c1 [Compound 13] | ++ (++ = pIC50 4.50-5.49) | + (+ = pIC50 4.00-4.49) | ++ (++ = pIC50 4.50-5.49) | +++ (+++ = pIC50 ≥ 5.50) |
| Nc1noc(N)c1-c1cccc(Cl)c1 [Compound 5] | ++ (++ = pIC50 4.50-5.49) | + (+ = pIC50 4.00-4.49) | ++ (++ = pIC50 4.50-5.49) | +++ (+++ = pIC50 ≥ 5.50) |
| O=S(=O)(Nc1oncc1-c1ccccc1)c1ccccc1 [Compound 26] | ++ (++ = pIC50 4.50-5.49) | +/− (+/− = pIC50 < 4.00) | +++ (+++ = pIC50 ≥ 5.50) | + (+ = pIC50 4.00-4.49) |
| CC(=O)Nc1oncc1-c1ccccc1 [Compound 17] | + (+ = pIC50 4.00-4.49) | + (+ = pIC50 4.00-4.49) | + (+ = pIC50 4.00-4.49) | ++ (++ = pIC50 4.50-5.49) |
| Nc1oncc1-c1ccc(F)cc1 [Compound 1] | ++ (++ = pIC50 4.50-5.49) | ++ (++ = pIC50 4.50-5.49) | ++ (++ = pIC50 4.50-5.49) | +++ (+++ = pIC50 ≥ 5.50) |
| O=S(=O)(Cc1ccccc1)Nc1oncc1-c1ccccc1 [Compound 29] | ++ (++ = pIC50 4.50-5.49) |  |  | + (+ = pIC50 4.00-4.49) |
| CCOC(=O)CC(=O)Nc1oncc1-c1ccccc1 [Compound 43] | ++ (++ = pIC50 4.50-5.49) |  |  | +++ (+++ = pIC50 ≥ 5.50) |
| CC(C)(C)C(=O)Nc1oncc1-c1ccc(F)cc1 [Compound 8] | ++ (++ = pIC50 4.50-5.49) |  |  | +/− (+/− = pIC50 < 4.00) |
| Nc1oncc1-c1ccccc1 [Compound 7] | ++ (++ = pIC50 4.50-5.49) | ++ (++ = pIC50 4.50-5.49) | ++ (++ = pIC50 4.50-5.49) | +++ (+++ = pIC50 ≥ 5.50) |
| CC(C)CS(=O)(=O)Nc1oncc1-c1ccccc1 [Compound 31] | ++ (++ = pIC50 4.50-5.49) |  |  | +/− (+/− = pIC50 < 4.00) |
| CC(C)C(=O)Nc1oncc1-c1ccccc1 [Compound 34] | ++ (++ = pIC50 4.50-5.49) | ++ (++ = pIC50 4.50-5.49) | ++ (++ = pIC50 4.50-5.49) | ++ (++ = pIC50 4.50-5.49) |
| O=C(Nc1oncc1-c1ccccc1)C1CCCCN1 (stereo not drawn) [Compound 44] | ++ (++ = pIC50 4.50-5.49) |  |  | +++ (+++ = pIC50 ≥ 5.50) |
| CS(=O)(=O)N1CCC(C(=O)Nc2oncc2-c2ccccc2)CC1 [Compound 38] | + (+ = pIC50 4.00-4.49) |  |  | ++ (++ = pIC50 4.50-5.49) |
| Nc1oncc1-c1ccccn1 [Compound 11] | + (+ = pIC50 4.00-4.49) |  |  | ++ (++ = pIC50 4.50-5.49) |
| Nc1oncc1-c1ccccc1F [Compound 20] | ++ (++ = pIC50 4.50-5.49) |  |  | ++ (++ = pIC50 4.50-5.49) |
| CN(C)CC(=O)Nc1oncc1-c1ccccc1 [Compound 37] | ++ (++ = pIC50 4.50-5.49) |  |  | ++ (++ = pIC50 4.50-5.49) |
| Cc1ccc(-c2cnoc2N)cc1 [Compound 3] | ++ (++ = pIC50 4.50-5.49) |  |  | +++ (+++ = pIC50 ≥ 5.50) |
| CNc1oncc1-c1ccccc1 [Compound 21] | ++ (++ = pIC50 4.50-5.49) |  |  | ++ (++ = pIC50 4.50-5.49) |
| CCOC(=O)CCC(=O)Nc1oncc1-c1ccccc1 [Compound 28] | ++ (++ = pIC50 4.50-5.49) |  |  | +++ (+++ = pIC50 ≥ 5.50) |
| O=C(CCO)Nc1oncc1-c1ccccc1 [Compound 41] | ++ (++ = pIC50 4.50-5.49) |  |  | +++ (+++ = pIC50 ≥ 5.50) |

Results, then the molecule that gave them:

| SKOV3 Kynurenine cell based assay pIC50 [1] | hTDO biochemical assay pIC50 [2] | hIDO biochemical assay pIC50 [3] | A172 Kynurenine cell based assay pIC50 [4] | SMILES |
| --- | --- | --- | --- | --- |
| ++ (++ = pIC50 4.50-5.49) | +/− (+/− = pIC50 < 4.00) | + (+ = pIC50 4.00-4.49) | +++ (+++ = pIC50 ≥ 5.50) | CC(N)C(=O)Nc1oncc1-c1ccccc1 (stereo not drawn) [Compound 81] |
| ++ (++ = pIC50 4.50-5.49) | + (+ = pIC50 4.00-4.49) | +/− (+/− = pIC50 < 4.00) | +++ (+++ = pIC50 ≥ 5.50) | O=C(Nc1oncc1-c1ccccc1)c1ccccc1 [Compound 49] |
| + (+ = pIC50 4.00-4.49) | ++ (++ = pIC50 4.50-5.49) | ++ (++ = pIC50 4.50-5.49) | +++ (+++ = pIC50 ≥ 5.50) | CC(O)C(=O)Nc1oncc1-c1ccccc1 (stereo not drawn) [Compound 75] |
| ++ (++ = pIC50 4.50-5.49) |  | ++ (++ = pIC50 4.50-5.49) | ++ (++ = pIC50 4.50-5.49) | N#Cc1ccc(-c2cnoc2N)cc1 [Compound 50] |
| ++ (++ = pIC50 4.50-5.49) | +/− (+/− = pIC50 < 4.00) | + (+ = pIC50 4.00-4.49) | +++ (+++ = pIC50 ≥ 5.50) | O=C(CO)Nc1oncc1-c1ccccc1 [Compound 63] |
| + (+ = pIC50 4.00-4.49) |  |  | ++ (++ = pIC50 4.50-5.49) | Nc1oncc1-c1ccncc1 [Compound 46] |
| +/− (+/− = pIC50 < 4.00) |  |  | ++ (++ = pIC50 4.50-5.49) | O=C(Nc1oncc1-c1ccccc1)C1CCCN1 (stereo not drawn) [Compound 66] |
| +++ (+++ = pIC50 ≥ 5.50) |  |  | + (+ = pIC50 4.00-4.49) | c1ccc(-n2nnnc2NCC2CCCCC2)cc1 [Compound 52] |
| ++ (++ = pIC50 4.50-5.49) |  |  | +++ (+++ = pIC50 ≥ 5.50) | NCC(=O)Nc1oncc1-c1ccccc1 [Compound 73] |
| + (+ = pIC50 4.00-4.49) |  |  | +/− (+/− = pIC50 < 4.00) | CS(=O)(=O)c1ccc(Cl)c(S(=O)(=O)Nc2cnoc2-c2ccccc2)c1 [Compound 55] |
| ++ (++ = pIC50 4.50-5.49) |  |  | + (+ = pIC50 4.00-4.49) | O=S(=O)(Nc1cnoc1-c1ccccc1)c1ccc2ccccc2c1 [Compound 53] |
| ++ (++ = pIC50 4.50-5.49) |  |  | +/− (+/− = pIC50 < 4.00) | O=S(=O)(Nc1cnoc1-c1ccccc1)N1CCCCC1 [Compound 56] |
| + (+ = pIC50 4.00-4.49) |  |  | ++ (++ = pIC50 4.50-5.49) | CN(CCC(=O)Nc1oncc1-c1ccccc1)S(C)(=O)=O [Compound 47] |
| + (+ = pIC50 4.00-4.49) | +/− (+/− = pIC50 < 4.00) | ++ (++ = pIC50 4.50-5.49) | +/− (+/− = pIC50 < 4.00) | CC(C)CS(=O)(=O)Nc1cnoc1-c1ccccc1 [Compound 80] |

— patent publication US10047074B2, “Pharmaceutical compound” (IOmet Pharma Ltd., priority 2014, dated 2018)
